Laboratory results reported in US20110059848A1, “GRANULAR TURF SAFE HERBICIDAL COMPOSITIONS” (E. I. DU PONT DE NEMOURS AND COMPANY, priority 2007, published 2011).

Tests used:
[1] = tested on: perennial ryegrass, fine fescue, Kentucky bluegrass, tall fescue, zoysiagrass, St. Augustinegrass, centipedegrass; conditions: cited from earlier work
weeds = conditions: mesotrione applied in a granular composition; cited from earlier work
[2] = tested on: Bermudagrass, Centipedegrass, St. Augustinegrass, Zoysiagrass; experiment: Subsequent testing of spray applications on warm-season turfgrasses; type: in vivo; conditions: Zoysiagrass and mixtures
Description: (§1) Accordingly new treatments using aminocyclopyrachlor and its derivatives are needed for successful selective weed control in turf comprising warm-season turfgrasses.

cool-season turfgrasses = experiment: Subsequent testing of spray applications on cool-season turfgrasses; type: in vivo; conditions: most cool-season turfgrasses
Description: as §1

Bermudagrass = conditions: postemergence spray application, 31 g ai/ha; cited from earlier work

## CS(=O)(=O)c1ccc(C(=O)C2C(=O)CCCC2=O)c([N+](=O)[O-])c1 [mesotrione]
[1]; mesotrione applied as a liquid in spray form
  damage/phytotoxicity to turfgrass varieties, formulations in spray form: unacceptable levels of damage/phytotoxicity
[1]; mesotrione applied in a granular composition
  phytotoxicity to turfgrasses, granular composition: reduced to insignificant levels
weeds
  weed control, granular composition: good weed control

## COC(=O)c1nc(C2CC2)nc(N)c1Cl [Compound 1, methyl 6-amino-5-chloro-2-cyclopropyl-4-pyrimidinecarboxylate]
[2]
  phytotoxicity of spray applications to warm-season turfgrasses: unacceptable phytotoxicity
cool-season turfgrasses
  safety of spray applications to cool-season turfgrasses: sufficient safety
Bermudagrass
  injury to Bermudagrass: 60%
